Values quoted from earlier work, collected in paper PMC10816276 (International Journal of Molecular Sciences, 2024).

Biological target: T1, Mushroom tyrosinase (mTyr) (Agaricus bisporus, UniProt C7FF04)
T1 construct: purchased Sigma-Aldrich
Conditions: substrate L-DOPA; cited from earlier work

T1 sequence (C7FF04 1-392): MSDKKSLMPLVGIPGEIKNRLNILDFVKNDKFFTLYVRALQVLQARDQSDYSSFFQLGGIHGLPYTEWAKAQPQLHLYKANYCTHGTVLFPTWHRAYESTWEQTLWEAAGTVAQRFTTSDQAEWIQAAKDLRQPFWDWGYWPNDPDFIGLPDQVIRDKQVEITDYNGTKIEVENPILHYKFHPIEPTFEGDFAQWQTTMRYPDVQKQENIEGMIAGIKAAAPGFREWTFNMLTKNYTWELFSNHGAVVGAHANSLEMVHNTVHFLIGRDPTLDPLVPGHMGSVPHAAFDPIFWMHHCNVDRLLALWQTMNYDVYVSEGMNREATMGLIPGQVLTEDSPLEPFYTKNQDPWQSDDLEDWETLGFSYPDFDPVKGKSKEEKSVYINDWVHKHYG

## OC[C@H]1O[C@@H](Oc2ccc(O)cc2)[C@H](O)[C@@H](O)[C@@H]1O [beta-arbutin, reference compound]
  inhibitory effect on the diphenolase activity of mTyr: no inhibitory effect
